Assay results taken from patent US7306811B2, “Fungicide composition based on halosulphone in particular for packaging” (priority 2000, dated 2007).

System: six mushroom strains: Aspergillus Sydowi, Aspergillus Versicolor, Cladosporium Herbarum, Cladosporium Sphaerospernum, Penicillium Citrinum and Penicillium …
Assay: Development of moulds on treated paper, standard AFNOR X 41 517
Settings: overall judgement of the paper mould test
Protocol: The following test was carried out. Two surfaces of a woodless industrial paper weighing 80 g/m^2 dry, having a 1-minute COBB value of 25 to 35, were brought into contact with six mushroom strains for 14 days under the quality test conditions of the standard AFNOR X 41 517: the strains used were Aspergillus Sydowi, Aspergillus Versicolor, Cladosporium Herbarum, Cladosporium Sphaerospernum, Penicillium Citrinum and Penicillium Corylophilum. At the end of this period, visual assessment of the development of moulds was noted using a code from 0 to 6+, the value 6+ being allocated to the untreated control, while the notation 0 corresponded to no development of the seeded moulds.
The fungicide solutions used in this test were prepared in the same way as mentioned above. With regard to the fungicide T1, chlorothalonil was mixed in water. The fungicidal product T2 was prepared on the basis of di-iodo-ethyl-p-tolyl-sulphone only. The fungicide T3 was prepared from a mixture of chlorotalonyl and a zinc pyrithione. The fungicide T4 was prepared from a mixture of Amical (di-iodomethyl-p-tolyl-sulphone, and zinc pyrithione. Finally the fungicide T5 corresponds to the mixture given by way of example above according to the invention, i.e. a mixture of chlorotalonyl and di-iodo-methyl-p-tolyl-sulphone or Amical.

Question: `N#Cc1c(Cl)c(Cl)c(Cl)c(C#N)c1Cl` [Chlorothalonil alone T1, 2,4,5,6 tetrachloro-1,3 benzene dicarbonitrile] was tested. Which “fungicidal quality in words, as seen from the Table” value did it give?
Answer: average fungicide

Question: How did the “fungicidal quality in words, as seen from the Table” value turn out when `Cc1ccc(S(=O)(=O)C(I)I)cc1` [DIMPTS alone T2, di-iodomethyl-p-tolyl-sulphone] was run?
Answer: excellent fungicide
